Experimental data taken from US11993574B2, “Pyrazole and imidazole compounds for inhibition of IL-17 and RORgamma” (REATA PHARMACEUTICALS, INC., priority 2018, dated 2024).

Experiments:
Type in all cases: cell-based
[1] = biological target: T1, Human RAR-related Orphan Receptor Gamma (RORγ) (Homo sapiens, UniProt P51449); assay: RORγ assay (GAL4-RORγ hybrid luciferase reporter, Indigo Biosciences); details: inverse-agonist activity, GAL4-RORγ reporter cells, 23 hours
T1 sequence (P51449 269-508 limits assumed): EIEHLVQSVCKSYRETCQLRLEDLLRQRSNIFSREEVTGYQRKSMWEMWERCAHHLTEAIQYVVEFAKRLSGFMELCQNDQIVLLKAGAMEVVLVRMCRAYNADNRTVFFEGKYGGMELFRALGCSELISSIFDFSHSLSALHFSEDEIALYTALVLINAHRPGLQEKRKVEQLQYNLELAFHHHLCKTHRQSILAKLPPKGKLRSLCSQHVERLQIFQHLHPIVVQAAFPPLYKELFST
Source text: B. RORγ Assay and Cell Viability
The RORγ assay system was purchased from Indigo Biosciences. This nuclear receptor assay utilizes a human cell line that has been engineered to express a hybrid form of the Human RAR-related Orphan Receptor Gamma (RORγ) at high levels. The N-terminal DNA binding domain (DBD) of the native RORγ receptor was substituted with the yeast GAL4-DBD to generate the GAL4-RORγ hybrid nuclear receptor. The reporter cell line is transfected with a plasmid that encodes the beetle luciferase gene under the control of the GAL4 upstream activating sequence (UAS). GAL4 binds to the UAS and increases transcription of downstream target genes. The GAL4-RORγ hybrid is constitutively active; therefore, the principle application of this reporter assay system is to screen test compounds to quantify inverse-agonist activities against human RORγ. Because the ligand binding domain (LBD) of RORγ is identical to the LBD of RORγt, this assay is an accurate surrogate for evaluating activity of experimental ligands against RORγt. To assess the RORγ inverse-agonist activity of the test compounds, reporter cells were plated in white 96-well plates in triplicate and were treated with DMSO (vehicle) or test compound (concentration ranges of 7.8-2000 nM) at 37° C. with 5% CO2 in a humidified atmosphere for 23 hours. After this incubation, luciferin was added to the wells and luciferase activity was determined by measuring the luminescence signal using a BMG Pherastar microplate reader. Viability was determined using the Live Cell Multiplex Assay (Indigo Biosciences). Values from test compound samples were normalized to those from DMSO-treated samples. Data were analyzed using GraphPad Prism version 6.00 for Windows (GraphPad Software, La Jolla Calif. USA). A non-linear regression analysis with log (inhibitor) vs. normalized response using a variable slope was applied to fit the data and determine the IC50 values for inhibition of RORγ and cell viability. Inhibition that is closely correlated with reduced viability is considered to be non-specific.

IL-17A = assay: IL-17 release from differentiated primary human T-cells (IL-17A HTRF assay); details: primary human CD4+ T cells differentiated into Th17 cells, 45-hour incubation, IL-17A in supernatant; read-out: hIL17 IC50
Method: C. IL-17 Release from Differentiated Primary Human T-Cells and Cell Viability
Primary human cryopreserved CD4+ T Cells (Lonza) were thawed according to the manufacturer's recommendations and plated either in Lymphocyte Growth Medium-3 (LGM-3) or X-VIVO 20 media (Lonza) in 96-well tissue culture plates at a density of ˜2×10^5 cells per well, and allowed to recover for approximately 4 hours at 37° C. with 5% CO2 in a humidified atmosphere. After the recovery step, DMSO (vehicle) or test compound at doses ranging from 2 to 500 nM or 4 to 1000 nM in a three-fold dilution series was added to the cells. Three replicate wells were tested for each treatment condition. Final DMSO concentration in each well was 0.1%. Immediately after treatment, CD4+ T cells were activated by adding Dynabeads Human T-Activator CD3/CD28 (Life Technologies; bead-to-cell ratio of 1:2.5) and differentiated into Th17 cells by adding a mixture of the following cytokines: transforming growth factor-β (TGF-β, 5 ng/mL), IL-6 (20 ng/mL), IL-23 (20 ng/mL), and IL-1β (10 ng/mL). Undifferentiated control cells received only cytokine IL-2 (50 ng/mL). All human recombinant cytokines were purchased from R&D Systems. Following a 45-hour incubation at 37° C. with 5% CO2 in a humidified atmosphere, the plates were centrifuged for 3 minutes at 250×g, and half of the supernatant was transferred to anew plate to be used in the IL-17A assay (see below). Cell viability was assessed in the original plate using the CyQuant Direct Assay (Life Technologies). CyQuant reagent (an amount equal to 10% of remaining media volume) was added to the wells, and the plates were then incubated at 37° C. for 75 min. Fluorescence was read on a SpectraMax M2e spectrophotometer at 480 nm (excitation) and 535 nm (emission) wavelengths. CyQuant values from test compound samples were normalized to those from DMSO-treated samples. The concentration of IL-17A in the supernatant was measured using the Homogeneous Time-Resolved Fluorescence (HTRF) assay (Cisbio Bioassays) according to the manufacturer's protocol. The assay was performed at room temperature in low volume, solid white 384-well plates (Greiner Bio-One). Samples and standards (serially-diluted human recombinant IL-17A (0 to 5,000 pg/mL concentration range; Cisbio Bioassays) were incubated with the anti-human IL-17A antibody conjugates (the HTRF donor and acceptor pair) for 16 hours and fluorescence was measured using a Pherastar FS microplate reader (BMG Labtech) in the HTRF mode (excitation at 337 nm and emission at 665 nm and 620 nm). IL-17A levels were assessed in duplicate aliquots of supernatant from each well resulting in a total of six readings per test condition. The 665 nm/620 nm signal ratio was calculated and the concentration of IL-17A in each sample was determined by interpolation from the standard curve. The amount of IL-17A from test compound treated samples were normalized to that of the vehicle-treated samples, set to 100%. Data were analyzed using GraphPad Prism (GraphPad Software, La Jolla California USA). Concentrations of test compound were transformed by taking the logarithm of each concentration used. The IC50 values for compound-mediated reduction in IL-17A levels and cell viability were determined by non-linear regression analysis using the log(inhibitor) vs. normalized response with variable slope equation. Inhibition that is closely correlated with reduced viability is considered to be non-specific.

[2] = system: Nrf2 transcription factor; assay: AREc32 luciferase reporter assay; details: Homo sapiens; AREc32 cells, 19 hours; concentration required to increase GST ARE luciferase reporter activity by 2-fold; read-out: NRF2 ARE 2-Fold (EC2×)
Source text: A. AREc32 Luciferase Reporter Assay
The AREc32 luciferase reporter assay allows for quantitative assessment of the endogenous activity of the Nrt2 transcription factor in cultured mammalian cells. AREc32 cells are derived from MCF-7 human breast carcinoma cells that were stably transfected with a reporter construct that contains the firefly luciferase gene located downstream of eight copies of the rat GSTA2 antioxidant response element (ARE) sequence (Wang et al., 2006; Concept Life Sciences Integrated Discovery and Development Services Ltd (CLSIDDS)). Active Nrf2 binds to the ARE sequences and increases expression of the firefly luciferase gene. To assess the Nrf2-activating potential of the test compounds, AREc32 cells were plated in black […] plates at a density of 20,000 cells per well in triplicate in DMEM+10% FBS+0.8 mg/mL Geneticin and incubated at 37° C. with 5% CO2 in a humidified atmosphere. The next day, cells were treated with DMSO (vehicle) or test compound (concentration ranges of 0.4-200 nM or 3.9-2000 nM) for 19 hours. Luciferase activity was determined using the ONE-Glo Luciferase assay (Promega). The luminescence signal was measured on a BMG Pherastar microplate reader. The mean luminescence value from test compound-treated wells was normalized to that from DMSO-treated wells and was represented as fold-induction. Data were analyzed using GraphPad Prism version 6.00 for Windows, GraphPad Software, La Jolla Calif. USA. A non-linear regression curve with log (agonist) vs. response using a variable slope was used to fit the data. Where applicable, a maximum threshold value of 50-fold over DMSO was set. EC2× values were interpolated from the curve. EC2× corresponds to the concentration of test compound required to increase GST ARE Luciferase reporter activity by 2-fold.

Row | Structure (SMILES) | IC50 [1] [µM] | IC50 (IL-17A) [µM] | EC (2-fold) [2] [µM]
1 | C[C@H]1C(=O)C(C#N)=C[C@@]2(C)c3c(c(-c4ccccc4)nn3-c3ccc(-c4ccc(N(C)C)cc4)cc3)CC[C@H]12 [T47] | 0.068 | 0.026 | 0.253
2 | C[C@H]1C(=O)C(C#N)=C[C@@]2(C)c3c(c(-c4ccncn4)nn3-c3ccc(-c4cccnc4)cc3F)CC[C@H]12 [T53] | 0.057 | 0.088 | 0.489
3 | C[C@H]1C(=O)C(C#N)=C[C@@]2(C)c3c(c(-c4ccncn4)nn3-c3ccc(-c4ccnc(CF)c4)cc3)CC[C@H]12 [T54] | 0.052 | 0.033 | 0.355
4 | C[C@H]1C(=O)C(C#N)=C[C@@]2(C)c3c(c(-c4ccncn4)nn3-c3ccc(-c4ccnc(CO)c4)cc3)CC[C@H]12 [T55] | 0.174 | 0.149 | 0.609
5 | C[C@H]1C(=O)C(C#N)=C[C@@]2(C)c3c(c(-c4ccncn4)nn3-c3ccc(-c4ccc(F)cc4)cn3)CC[C@H]12 [T56] | 0.099 | 0.055 | 0.433
6 | C[C@H]1C(=O)C(C#N)=C[C@@]2(C)c3c(c(-c4ccncn4)nn3-c3ccc(-c4cccc(CO)c4)cn3)CC[C@H]12 [T60] | 0.101 | 0.141 | 0.44
7 | C[C@H]1C(=O)C(C#N)=C[C@@]2(C)c3c(c(-c4ccncn4)nn3-c3ccc(-c4cccc(CF)c4)cn3)CC[C@H]12 [T61] | 0.136 | 0.115 | 0.251
8 | C[C@H]1C(=O)C(C#N)=C[C@@]2(C)c3c(c(-c4ccncn4)nn3-c3ccc(C(F)(F)F)cn3)CC[C@H]12 [T63] | 0.201 | 0.151 | 0.725
9 | C[C@H]1C(=O)C(C#N)=C[C@@]2(C)c3c(c(-c4ccc(F)cc4)nn3-c3ccc(-c4ccccc4)cc3)CC[C@H]12 [T65] | 0.077 | 0.012 | 0.201
10 | C[C@H]1C(=O)C(C#N)=C[C@@]2(C)c3c(c(-c4ccccc4F)nn3-c3ccc(-c4ccccc4)cc3)CC[C@H]12 [T66] | 0.058 | 0.019 | 0.128
11 | C[C@H]1C(=O)C(C#N)=C[C@@]2(C)c3c(c(-c4ccncc4)nn3-c3ccc(-c4ccccc4)cc3)CC[C@H]12 [T67] | 0.049 | 0.026 | 0.269
12 | C[C@H]1C(=O)C(C#N)=C[C@@]2(C)c3c(c(-c4cccnc4)nn3-c3ccc(-c4ccccc4)cc3)CC[C@H]12 [T68] | 0.036 | 0.027 | 0.248
13 | Cc1ccc(-c2nn(-c3ccc(-c4ccccc4)cc3)c3c2CC[C@@H]2[C@@H](C)C(=O)C(C#N)=C[C@@]32C)cc1 [T69] | 0.142 | 0.012 | 0.38
14 | CC(C)c1cccc(-c2nn(-c3ccc(-c4ccccc4)cc3)c3c2CC[C@@H]2[C@@H](C)C(=O)C(C#N)=C[C@@]32C)c1 [T71] | 0.294 | 0.009 | 0.257

The next lines start with results.

Row | IC50 [1] [µM] | IC50 (IL-17A) [µM] | Structure (SMILES) | EC (2-fold) [2] [µM]
15 | 0.045 | 0.03 | C[C@H]1C(=O)C(C#N)=C[C@@]2(C)c3c(c(-c4ccncn4)nn3-c3ccc(-c4ccccc4)cc3)CC[C@H]12 [T48] | 0.187
16 | 0.059 | 0.052 | C[C@H]1C(=O)C(C#N)=C[C@@]2(C)c3c(c(-c4ccncn4)nn3-c3ccc(-c4cncc(F)c4)cc3)CC[C@H]12 [T49] | 0.392
17 | 0.115 | 0.326 | C[C@H]1C(=O)C(C#N)=C[C@@]2(C)c3c(c(-c4ccncn4)nn3-c3ccc(-c4cncnc4)cc3)CC[C@H]12 [T50] | 0.977
18 | 0.048 | 0.091 | C[C@H]1C(=O)C(C#N)=C[C@@]2(C)c3c(c(-c4ccncn4)nn3-c3ccc(-c4cccnc4)cc3)CC[C@H]12 [T51] | 0.501
19 | 0.096 | 0.067 | C[C@H]1C(=O)C(C#N)=C[C@@]2(C)c3c(c(-c4ccncn4)nn3-c3ccc(-c4cccnc4)cn3)CC[C@H]12 [T57] | 0.403
20 | 0.128 | 0.043 | C[C@H]1C(=O)C(C#N)=C[C@@]2(C)c3c(c(-c4ccncn4)nn3-c3ccc(-c4cccc(F)c4)cn3)CC[C@H]12 [T58] | 0.355
21 | 0.113 | 0.099 | C[C@H]1C(=O)C(C#N)=C[C@@]2(C)c3c(c(-c4ccncn4)nn3-c3ccc(-c4ccccc4)cn3)CC[C@H]12 [T59] | 0.449
22 | 0.122 | 0.144 | C[C@H]1C(=O)C(C#N)=C[C@@]2(C)c3c(c(-c4ccncn4)nn3-c3ccc(-c4ccccc4)nc3)CC[C@H]12 [T64] | 0.636
23 | 0.075 | 0.058 | C[C@H]1C(=O)C(C#N)=C[C@@]2(C)c3c(c(-c4cncnc4)nn3-c3ccc(-c4ccccc4)cc3)CC[C@H]12 [T70] | 0.472
